Laboratory results from US20180186742A1, “PICOLINAMIDES AS FUNGICIDES” (Dow AgroSciences LLC, priority 2017, published 2018).
Read-outs that look alike come from different tables or passages of the source.

What was measured:
Assay type in all cases: in vivo
Puccinia triticina = test: Wheat brown rust (PUCCRT), disease control on wheat seedlings; details: low volume application at 121.5 g/H
How it was run: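 Compounds in acetone, diluted with nine volumes of water containing 110 ppm Triton X-100, sprayed to run-off on first-leaf Yuma wheat seedlings; track-spray tests used EC formulations with 0.1% Trycol 5941. Puccinia triticina spores applied before or after treatment. Overnight dark dew room at 22° C, 100% humidity, then greenhouse at 24° C.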

Phakopsora pachyrhizi = test: Asian soybean rust (PHAKPA), disease control on soybean seedlings; details: High volume application at 25 ppm
How it was run: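 Two-week-old Williams 82 soybean seedlings were sprayed to run-off with compound in acetone/water (1:9) containing 0.011% Tween 20. Inoculation was 3 days before (curative) or 1 day after (protectant) treatment, followed by 24 h dark dew at 22 °C, 100% RH, then 23 °C; disease severity scored on sprayed leaves.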

Cercospora beticola = test: Leaf spot of sugar beets (CERCBE), disease control on sugar beet plants; details: 1DP test at 100 ppm, read-out: CERCBE disease control rating
Procedure: Technical grades of materials were dissolved in acetone, which were then mixed with nine volumes of water containing 110 ppm Triton X-100. The fungicide solutions were applied onto wheat seedlings using an automated booth sprayer to run-off. All sprayed plants were allowed to air dry prior to further handling. All fungicides were evaluated using the aforementioned method for their activity vs. all target diseases, unless stated otherwise. Wheat leaf blotch and brown rust activity were also evaluated using track spray applications, in which case the fungicides were formulated as EC formulations, containing 0.1% Trycol 5941 in the spray solutions. Sugar beet plants (variety HH88) were grown in soil-less Metro mix and trimmed regularly to maintain a uniform plant size prior to test. Plants were inoculated with a spore suspension 24 hr after fungicide treatments. Inoculated plants were kept in a dew chamber at 22° C. for 48 hr then incubated in a greenhouse set at 24° C. under a clear plastic hood with bottom ventilation until disease symptoms were fully expressed. Fungicide formulation, application and disease assessment on the sprayed leaves followed the procedures as described in the Example A.

[1] = tested on: Glomerella lagenarium; Anamorph: Colletotrichum lagenarium; test: Cucumber anthracnose (COLLLA), disease control on cucumber seedlings; details: Colletotrichum orbiculare, 1DP test at 100 ppm, read-out: COLLLA disease control rating
Procedure: Technical grades of materials were dissolved in acetone, which were then mixed with nine volumes of water containing 110 ppm Triton X-100. The fungicide solutions were applied onto wheat seedlings using an automated booth sprayer to run-off. All sprayed plants were allowed to air dry prior to further handling. All fungicides were evaluated using the aforementioned method for their activity vs. all target diseases, unless stated otherwise. Wheat leaf blotch and brown rust activity were also evaluated using track spray applications, in which case the fungicides were formulated as EC formulations, containing 0.1% Trycol 5941 in the spray solutions. Cucumber seedlings (variety Bush Pickle) were propagated in soil-less Metro mix, with each pot having one plant, and used in the test when 12 to 14 days old. Test plants were inoculated with an aqueous spore suspension of Colletotrichum lagenarium 24 hr after fungicide treatments. After inoculation the plants were kept in a dew room at 22° C. with 100% relative humidity for 48 hr to permit spores to germinate and infect the leaf. The plants were then transferred to a growth room set at 22° C. for disease to develop. Fungicide formulation, application and disease assessment on the sprayed leaves followed the procedures as described in the Example A.

Parastagonospora nodorum = test: Wheat glume blotch (LEPTNO), disease control on wheat seedlings; details: 1DP test at 100 ppm, read-out: LEPTNO disease control rating
Procedure: Technical grades of materials were dissolved in acetone, which were then mixed with nine volumes of water containing 110 ppm Triton X-100. The fungicide solutions were applied onto wheat seedlings using an automated booth sprayer to run-off. All sprayed plants were allowed to air dry prior to further handling. All fungicides were evaluated using the aforementioned method for their activity vs. all target diseases, unless stated otherwise. Wheat leaf blotch and brown rust activity were also evaluated using track spray applications, in which case the fungicides were formulated as EC formulations, containing 0.1% Trycol 5941 in the spray solutions. Wheat plants (variety Yuma) were grown from seed in a greenhouse in 50% mineral soil/50% soil-less Metro mix until the first leaf was fully emerged, with 7-10 seedlings per pot. These plants were inoculated with an aqueous spore suspension of Parastagonospora nodorum 24 hr after fungicide treatments. After inoculation the plants were kept in 100% relative humidity (one day in a dark dew chamber followed by two days in a lighted dew chamber at 20° C.) to permit spores to germinate and infect the leaf. The plants were then transferred to a greenhouse set at 20° C. for disease to develop. Fungicide formulation, application and disease assessment followed the procedures as described in the Example A.

[2] = tested on: Magnaporthe grisea; Anamorph: Pyricularia oryzae; test: whole plant or invertebrate; details: 24 h, read-out: PYRIOR Disease Control
Uncinula necator = test: Grape powdery mildew (UNCINE), disease control on grape seedlings; details: Erysiphe necator, 24 h, 1DP (1 Day Protectant) test at 100 ppm
Procedure: Technical grades of materials were dissolved in acetone, which were then mixed with nine volumes of water containing 110 ppm Triton X-100. The fungicide solutions were applied onto wheat seedlings using an automated booth sprayer to run-off. All sprayed plants were allowed to air dry prior to further handling. All fungicides were evaluated using the aforementioned method for their activity vs. all target diseases, unless stated otherwise. Wheat leaf blotch and brown rust activity were also evaluated using track spray applications, in which case the fungicides were formulated as EC formulations, containing 0.1% Trycol 5941 in the spray solutions. Grape seedlings (variety Carignane) were grown in soil-less Metro mix, with one plant per pot, and used in the test when approximately 1 month old. Plants were inoculated 24 hr after fungicide treatment by shaking spores from infected leaves over test plants. Plants were maintained in a greenhouse set at 20° C. until disease was fully developed. Fungicide formulation, application and disease assessment on sprayed leaves followed the procedures as described in the Example A.

[3] = 24 h, 1 Day Protectant, read-out: PUCCRT disease control, 1DP, LV activity
[4] = 72 h, 3 Day Curative, read-out: PUCCRT disease control, 3DC, LV activity
[5] = 24 h, 1 Day Protectant, read-out: PHAKPA 1DP disease control rating
[6] = 72 h, 3 Day Curative, read-out: PHAKPA 3DC disease control rating
[7] = 24 h, 1 Day Protectant, wheat brown rust, read-out: PUCCRT 1DP disease control, LV activity
[8] = 72 h, 3 Day Curative, wheat brown rust, read-out: PUCCRT 3DC disease control, LV activity

Structure (SMILES)	pest or weed control at 121.5 g/ha (Puccinia triticina; [3]) [%]	pest or weed control at 121.5 g/ha (Puccinia triticina; [4]) [%]	pest or weed control at 25 ppm (Phakopsora pachyrhizi; [5]) [%]	pest or weed control at 25 ppm (Phakopsora pachyrhizi; [6]) [%]	pest or weed control at 100 ppm (Cercospora beticola) [%]	pest or weed control at 100 ppm [1] [%]	pest or weed control at 100 ppm (Parastagonospora nodorum) [%]	pest or weed control at 100 ppm [2] [%]	pest or weed control at 100 ppm (Uncinula necator) [%]	pest or weed control at 121.5 g/ha (Puccinia triticina; [7]) [%]	pest or weed control at 121.5 g/ha (Puccinia triticina; [8]) [%]
COc1ccnc(C(=O)N[C@@H](C)C(=O)O[C@@H](C)[C@H](c2cccc(F)c2C)C(C)C)c1OC(C)=O [Compound 359]	> 80	> 80	> 80	> 80	> 80	> 80	> 80	> 80	> 80		
COc1ccnc(C(=O)N[C@@H](C)C(=O)O[C@@H](C)[C@H](c2cccc(C)c2C)C(C)C)c1OC(C)=O [Compound 363]	> 80	> 80	> 80	> 80	> 80	< 80	< 80	> 80	> 80		
COc1ccnc(C(=O)N[C@@H](C)C(=O)O[C@@H](C)[C@H](c2ccccc2C)C(C)C)c1OC(C)=O [Compound 364]			> 80	> 80	> 80	> 80	< 80	> 80	> 80	> 80	< 80
COc1ccnc(C(=O)N[C@@H](C)C(=O)O[C@@H](C)[C@H](c2ccc(F)cc2C)C(C)C)c1OC(=O)OC(C)C [Compound 373]			> 80	> 80	> 80	> 80	> 80	< 80	> 80	> 80	< 80
COc1ccnc(C(=O)N[C@@H](C)C(=O)O[C@@H](C)[C@H](c2ccc(F)cc2C)C(C)C)c1OC(=O)C(C)(C)C [Compound 374]			> 80	< 80	> 80	< 80	> 80	< 80	> 80	> 80	< 80
COc1ccnc(C(=O)N[C@@H](C)C(=O)O[C@@H](C)[C@H](c2ccccc2C)C(C)C)c1OC(=O)C(C)C [Compound 375]			> 80	> 80	> 80	> 80	> 80	> 80	> 80	> 80	> 80
